Experimental findings from patent US20260315452A1, “PROTEASE INHIBITORS AND USES THEREOF” (priority 2023, published 2026) are described below.

Where a name gives a salt, the structure may show the parent alone.

One assay has as its target SARS-CoV-2 3CLpro (Severe acute respiratory syndrome coronavirus 2, UniProt P0DTD1). In words: biochemical. Particulars: inhibition of SARS-CoV-2 3CLpro; 15 nM 3CLpro, 25 μM fluorogenic substrate, 37° C.; read-out: Inhibitory Activity (IC50).
For the next assay, the system named is SARS-CoV-2. As to the kind of experiment: Anti-SARS-CoV-2 activity in A549 cells expressing the human ACE2 receptor (inhibition of SARS-CoV-2 replication). It counts as cell-based. The following applies: for EC50: Severe acute respiratory syndrome coronavirus 2, A549-ACE2, 24 h, read-out: Antiviral Activity (EC50).

On to `CNC(=O)c1cc(Cl)cc(C(F)(F)F)c1N[C@@H]1COCC[C@@H]1NC(=O)c1cncc2ccccc12` [Compound 146, N-((3S, 4S)-3-((4-chloro-2-(methylcarbamoyl)-6-(trifluoromethyl)phenyl)amino)tetrahydro-2H-pyran-4-yl)isoquinoline-4-carboxamide], for which, at SARS-CoV-2 3CLpro, the IC50 (commonly the concentration that gives 50% inhibition) lay within 100 to 1000 nM. For the same molecule, the half-maximal effective concentration (EC50) (usually the concentration giving half of the maximal effect) in the assay on SARS-CoV-2 is 100 to 1000 nM.
In the case of `CNC(=O)c1cc(Br)cc([N+](=O)[O-])c1N[C@@H]1CCOC[C@@H]1NC(=O)c1cncc2ccccc12` [Compound 70, N-((3R, 4R)-4-((4-bromo-2-(methylcarbamoyl)-6-nitrophenyl)amino)tetrahydro-2H-pyran-3-yl)isoquinoline-4-carboxamide], the IC50 at SARS-CoV-2 3CLpro was in the range of 100 to 1000 nM. Also, the EC50 in the assay with SARS-CoV-2 was in the range of 100 to 1000 nM.
Regarding `O=C(NC1CC1)c1cc(Br)cc([N+](=O)[O-])c1N[C@@H]1CCCN(C(=O)c2cncc3ccccc23)C1` [Compound 125, (R)-5-bromo-N-cyclopropyl-2-((1-(isoquinoline-4-carbonyl)piperidin-3-yl)amino)-3-nitrobenzamide], the IC50 on SARS-CoV-2 3CLpro was less than 100 nM. Further, in the assay with SARS-CoV-2, the concentration for a half-maximal effect (EC50) was less than 100 nM.
Consider `CNC(=O)c1cc(Br)cc([N+](=O)[O-])c1N[C@H]1CN(C(=O)c2cncc3ccccc23)CC(F)(F)C1` [Compound 62, (R)-5-bromo-2-((5,5-difluoro-1-(isoquinoline-4-carbonyl)piperidin-3-yl)amino)-N-methyl-3-nitrobenzamide], for which the IC50 at SARS-CoV-2 3CLpro is 100 to 1000 nM. For the same molecule, the EC50 in the assay on SARS-CoV-2 lay in the range of 100 to 1000 nM.
Consider `O=C(NC1(C(F)(F)F)CC1)c1cc(Br)cc([N+](=O)[O-])c1N[C@@H]1CCCC[C@@H]1NC(=O)c1cncc2ccccc12` [Compound 16, N-((1S, 2R)-2-((4-bromo-2-nitro-6-((1-(trifluoromethyl)cyclopropyl)carbamoyl)phenyl)amino)cyclohexyl)isoquinoline-4-carboxamide], for which, on SARS-CoV-2 3CLpro, the IC50 was in the range of 100 to 1000 nM. Further, the 50% effective concentration (EC50) in the assay with SARS-CoV-2 was 1000 to 10000 nM.
For `O=C(NC1CC(F)(F)C1)c1cc(Br)cc([N+](=O)[O-])c1N[C@@H]1COCC[C@@H]1NC(=O)c1cncc2ccccc12` [Compound 126, N-((3S, 4S)-3-((4-bromo-2-((3,3-difluorocyclobutyl)carbamoyl)-6-nitrophenyl)amino)tetrahydro-2H-pyran-4-yl)isoquinoline-4-carboxamide], in that order: less than 100 nM and less than 100 nM.
As to `CNC(=O)c1cc(Br)cc([N+](=O)[O-])c1N[C@@H]1CCCC[C@@H]1NC(=O)C[C@@H]1CCNC1=O` [Compound 7, 5-bromo-N-methyl-3-nitro-2-(((1R, 2S)-2-(2-((S)-2-oxopyrrolidin-3-yl)acetamido)cyclohexyl)amino)benzamide], the IC50 on SARS-CoV-2 3CLpro fell in the range of 1000 to 10000 nM. In addition, the concentration giving a half-maximal response (EC50) with SARS-CoV-2 is greater than 10000 nM.
On to `O=C(NCC(F)(F)F)c1cc(Cl)cc([N+](=O)[O-])c1N[C@H]1CN(C(=O)c2cncc3ccccc23)CCC1(F)F` [Compound 91, (S)-5-chloro-2-((4,4-difluoro-1-(isoquinoline-4-carbonyl)piperidin-3-yl)amino)-3-nitro-N-(2,2,2-trifluoroethyl) benzamide], for which the IC50 at SARS-CoV-2 3CLpro was less than 100 nM. Further, the EC50 in the assay on SARS-CoV-2 is less than 100 nM.
Regarding `O=C(NC1CC1)c1cc(Br)cc([N+](=O)[O-])c1N[C@@H]1COCC[C@@H]1NC(=O)c1cncc2ccccc12` [Compound 133, N-((3S, 4S)-3-((4-bromo-2-(cyclopropylcarbamoyl)-6-nitrophenyl)amino)tetrahydro-2H-pyran-4-yl)isoquinoline-4-carboxamide], the IC50 on SARS-CoV-2 3CLpro is less than 100 nM. Further, the EC50 with SARS-CoV-2 is less than 100 nM.
As to `NC(=O)c1cc(Br)cc([N+](=O)[O-])c1N[C@@H]1CCCC[C@@H]1NC(=O)c1cncc2ccccc12` [Compound 53, N-((1S,2R)-2-((4-bromo-2-carbamoyl-6-nitrophenyl)amino)cyclohexyl)isoquinoline-4-carboxamide], the IC50 at SARS-CoV-2 3CLpro is 100 to 1000 nM. In addition, the EC50 in the assay on SARS-CoV-2 lay within 1000 to 10000 nM.
For `CNC(=O)c1cc(Br)cc([N+](=O)[O-])c1N[C@@H]1CCCC[C@@H]1NC(=O)c1cncc2ccc(F)cc12` [Compound 9, N-((1S, 2R)-2-((4-bromo-2-(methylcarbamoyl)-6-nitrophenyl)amino)cyclohexyl)-6-fluoroisoquinoline-4-carboxamide], in that order: less than 100 nM and 100 to 1000 nM.
In the case of `O=C(NC1CC(F)(F)C1)c1cc(Br)cc([N+](=O)[O-])c1N[C@@H]1CCCN(C(=O)c2cncc3ccccc23)C1` [Compound 34, (R)-5-bromo-N-(3,3-difluorocyclobutyl)-2-((1-(isoquinoline-4-carbonyl)piperidin-3-yl)amino)-3-nitrobenzamide], the IC50 on SARS-CoV-2 3CLpro was less than 100 nM. For the same molecule, the EC50 in the assay on SARS-CoV-2 is less than 100 nM.
In the case of `O=C(NC1CC(F)(F)C1)c1cc(Cl)cc(C(F)(F)F)c1N[C@@H]1COCC[C@@H]1NC(=O)c1cncc2ccccc12` [Compound 145, N-((3S, 4S)-3-((4-chloro-2-((3,3-difluorocyclobutyl)carbamoyl)-6-(trifluoromethyl)phenyl)amino)tetrahydro-2H-pyran-4-yl)isoquinoline-4-carboxamide], the concentration for half-maximal inhibition (IC50) at SARS-CoV-2 3CLpro is 100 to 1000 nM. Further, in the assay on SARS-CoV-2, the EC50 lay within 100 to 1000 nM.
As to `CNC(=O)c1cc(Cl)cc([N+](=O)[O-])c1N[C@H]1CN(C(=O)c2cncc3ccccc23)CC[C@@H]1F` [Compound 96, 5-chloro-2-(((3S, 4S)-4-fluoro-1-(isoquinoline-4-carbonyl)piperidin-3-yl)amino)-N-methyl-3-nitrobenzamide], the IC50 on SARS-CoV-2 3CLpro was less than 100 nM. Moreover, in the assay on SARS-CoV-2, the EC50 was less than 100 nM.
Take `O=C(N[C@H]1CCCC[C@H]1Nc1c(C(=O)N2CC(F)(F)C2)cc(Br)cc1[N+](=O)[O-])c1cncc2ccccc12` [Compound 14, N-((1S, 2R)-2-((4-bromo-2-(3,3-difluoroazetidine-1-carbonyl)-6-nitrophenyl)amino)cyclohexyl)isoquinoline-4-carboxamide]: on SARS-CoV-2 3CLpro, the IC50 lay in the range of 100 to 1000 nM. Moreover, in the assay on SARS-CoV-2, the EC50 was 100 to 1000 nM.
On to `O=C(NCC(F)F)c1cc(Br)cc([N+](=O)[O-])c1N[C@@H]1CCCC[C@@H]1NC(=O)c1cncc2ccccc12` [Compound 61, N-((IS, 2R)-2-((4-bromo-2-((2,2-difluoroethyl)carbamoyl)-6-nitrophenyl)amino)cyclohexyl)isoquinoline-4-carboxamide], for which the IC50 at SARS-CoV-2 3CLpro was less than 100 nM. In addition, the EC50 with SARS-CoV-2 is less than 100 nM.
Consider `CNC(=O)c1cc(Br)cc([N+](=O)[O-])c1NC(C(C)C)C1CN(C(=O)c2cncc3ccccc23)C1` (stereo in doubt) [Compound 12, (S)-5-bromo-2-((1-(1-(isoquinoline-4-carbonyl)azetidin-3-yl)-2-methylpropyl)amino)-N-methyl-3-nitrobenzamide], for which the IC50 at SARS-CoV-2 3CLpro was less than 100 nM. For the same molecule, the half-maximal effective concentration (EC50) in the assay with SARS-CoV-2 is less than 100 nM.
`CN(C)C1CN(C(=O)c2cc(Cl)cc([N+](=O)[O-])c2N[C@H]2CN(C(=O)c3cncc4ccccc34)CCC2(F)F)C1` [Compound 94, (S)-(5-chloro-2-((4,4-difluoro-1-(isoquinoline-4-carbonyl)piperidin-3-yl)amino)-3-nitrophenyl)(3-(dimethylamino)azetidin-1-yl)methanone hydrochloride]: the IC50 on SARS-CoV-2 3CLpro was less than 100 nM. Besides, the concentration giving a half-maximal response (EC50) in the assay with SARS-CoV-2 is less than 100 nM.
As to `O=C(NC1CC(F)(F)C1)c1cc(Br)cc(C(F)(F)F)c1N[C@H]1CN(C(=O)c2cncc3ccccc23)CCC1(F)F` [Compound 144, (S)-5-bromo-2-((4,4-difluoro-1-(isoquinoline-4-carbonyl)piperidin-3-yl)amino)-N-(3,3-difluorocyclobutyl)-3-(trifluoromethyl)benzamide], the IC50 at SARS-CoV-2 3CLpro is less than 100 nM. In addition, the EC50 in the assay on SARS-CoV-2 was less than 100 nM.
As to `Cn1cc(NC(=O)c2cc(Br)cc([N+](=O)[O-])c2N[C@H]2CN(C(=O)c3cncc4ccccc34)CCC2(F)F)cn1` [Compound 155, (S)-5-bromo-2-((4,4-difluoro-1-(isoquinoline-4-carbonyl)piperidin-3-yl)amino)-N-(1-methyl-1H-pyrazol-4-yl)-3-nitrobenzamide], on SARS-CoV-2 3CLpro, the IC50 was less than 100 nM. Moreover, the 50% effective concentration (EC50) in the assay on SARS-CoV-2 is less than 100 nM.
On to `C=CCNC(=O)c1cc(Cl)cc([N+](=O)[O-])c1N[C@H]1CN(C(=O)c2cncc3ccccc23)CCC1(F)F` [Compound 42, (S)-N-allyl-5-chloro-2-((4,4-difluoro-1-(isoquinoline-4-carbonyl)piperidin-3-yl)amino)-3-nitrobenzamide], for which the IC50 at SARS-CoV-2 3CLpro was less than 100 nM. Also, in the assay on SARS-CoV-2, the EC50 is less than 100 nM.
Turning to `COC1CN(C(=O)c2cc(Cl)cc([N+](=O)[O-])c2N[C@H]2CN(C(=O)c3cncc4ccccc34)CCC2(F)F)C1` [Compound 44, (S)-(5-chloro-2-((4,4-difluoro-1-(isoquinoline-4-carbonyl)piperidin-3-yl)amino)-3-nitrophenyl)(3-methoxyazetidin-1-yl)methanone], on SARS-CoV-2 3CLpro, the IC50 was less than 100 nM. For the same molecule, the concentration for a half-maximal effect (EC50) in the assay on SARS-CoV-2 is less than 100 nM.
Turning to `CC(C)C(Nc1c(C(=O)N[C@H](C)C(F)(F)F)cc(Br)cc1[N+](=O)[O-])C1CN(C(=O)c2cncc3ccccc23)C1` (stereo partly drawn) [Compound 124, 5-bromo-2-((1-(1-(isoquinoline-4-carbonyl)azetidin-3-yl)-2-methylpropyl)amino)-3-nitro-N-((R)-1,1,1-trifluoropropan-2-yl)benzamide], the IC50 on SARS-CoV-2 3CLpro is less than 100 nM. The EC50 with SARS-CoV-2 is less than 100 nM.
`O=C(N[C@@H]1CCOC1)c1cc(Br)cc([N+](=O)[O-])c1N[C@H]1CN(C(=O)c2cncc3ccccc23)CCC1(F)F` [Compound 37, 5-bromo-2-(((S)-4,4-difluoro-1-(isoquinoline-4-carbonyl)piperidin-3-yl)amino)-3-nitro-N-((R)-tetrahydrofuran-3-yl)benzamide]: on SARS-CoV-2 3CLpro, the IC50 was less than 100 nM. Besides, the “antiviral potency in A549 cells in comparison with compound Ref-2” value in the assay on SARS-CoV-2 (A549 cells, versus Ref-2 (FIG. 7)) is recorded as “better antiviral potency”. The EC50 in the assay with SARS-CoV-2 is less than 100 nM.
Consider `O=C(c1cc(Br)cc([N+](=O)[O-])c1N[C@H]1CN(C(=O)c2cncc3ccccc23)CCC1(F)F)N1CC(O)C1` [Compound 139, (S)-(5-bromo-2-((4,4-difluoro-1-(isoquinoline-4-carbonyl)piperidin-3-yl)amino)-3-nitrophenyl)(3-hydroxyazetidin-1-yl)methanone], for which the IC50 on SARS-CoV-2 3CLpro was less than 100 nM. Also, the EC50 with SARS-CoV-2 is less than 100 nM.
